One series concerns the target T1, MASTL (Homo sapiens, UniProt Q96GX5).
T1 sequence (Q96GX5 1-879): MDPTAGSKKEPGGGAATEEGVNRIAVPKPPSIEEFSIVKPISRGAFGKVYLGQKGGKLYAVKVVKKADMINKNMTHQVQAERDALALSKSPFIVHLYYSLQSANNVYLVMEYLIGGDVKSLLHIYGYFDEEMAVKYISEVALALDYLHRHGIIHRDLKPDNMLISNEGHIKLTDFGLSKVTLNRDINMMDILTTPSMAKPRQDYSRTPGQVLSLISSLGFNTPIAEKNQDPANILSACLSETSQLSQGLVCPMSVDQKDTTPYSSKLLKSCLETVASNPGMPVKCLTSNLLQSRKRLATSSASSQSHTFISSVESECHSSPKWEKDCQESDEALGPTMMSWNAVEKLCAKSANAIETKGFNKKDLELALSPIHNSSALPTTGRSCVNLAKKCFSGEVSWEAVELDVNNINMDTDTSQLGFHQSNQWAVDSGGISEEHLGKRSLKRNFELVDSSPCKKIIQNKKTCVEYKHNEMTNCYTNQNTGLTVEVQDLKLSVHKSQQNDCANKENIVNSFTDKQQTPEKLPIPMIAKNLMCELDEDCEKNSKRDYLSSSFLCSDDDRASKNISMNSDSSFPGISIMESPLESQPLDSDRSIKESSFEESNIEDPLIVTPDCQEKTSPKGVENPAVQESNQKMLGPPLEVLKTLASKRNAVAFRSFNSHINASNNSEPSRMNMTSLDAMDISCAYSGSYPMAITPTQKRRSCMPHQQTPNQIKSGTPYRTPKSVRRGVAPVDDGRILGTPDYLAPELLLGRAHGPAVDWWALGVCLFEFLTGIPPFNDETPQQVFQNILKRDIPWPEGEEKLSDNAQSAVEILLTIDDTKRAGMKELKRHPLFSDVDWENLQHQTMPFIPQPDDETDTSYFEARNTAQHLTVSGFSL
As to conditions: reported MASTL inhibitors, background art; cited from earlier work.

Series [1] has as its target T2, Recombinant GST-TAG-MASTL (Homo sapiens, UniProt Q96GX5).
T2 construct: GST; purchased Thermo Fisher Scientific
T2 sequence (Q96GX5 1-879): T1 sequence (Q96GX5 1-879)
Nature of the series: HTRF-based kinase assay (HTRF KinEASE assay kit). As to conditions: for MASTL activity (%) HTRF (1 µM) / activity at 1 µM: compound 1 µM; for IC50: HTRF, read-out: IC50(nM) MASTL activity; for activity at 1 µM: read-out: MASTL activity (%) HTRF (1 µM). In kind it is biochemical. The text has this: Recombinant GST-TAG-MASTL (Thermo Fisher Scientific, MA, USA) was used for HTRF-based kinase assays. The HTRF KinEASE assay kit (CisBio, MA, USA) was used according to the manufacturer's instructions.
For orientation: In TR-FRET formats the signal depends on donor and acceptor labels being close together.

Another series relates to pENSA. Nature of the series: pENSA level by immunofluorescence (described method: in vitro kinase analysis with GST-tag-MASTL and His-tag-ENSA). It counts as cell-based. Conditions: for pENSA (%) Immunofluor ecense (1 µM): compound 1 µM. The method in brief: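 In vitro kinase reaction using recombinant GST-tagged MASTL with His-tagged ENSA as substrate; phosphorylated ENSA (pENSA) serves as read-out of MASTL activity. Cell lines named: MCF7 breast cancer and MCF10A.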

Series [2] relates to MCF7 breast cancer cell lines. As to the kind of experiment: Cell viability analysis, WST-8 assay, MCF7. As to conditions: for Cell viability (%) WST-8, MCF7 (1 µM): compound 1 µM, 72 hours. Background: Tetrazolium dyes change colour on reduction, which living cells bring about.
Method: (§1) MCF7 breast cancer cell lines and MCF10A normal breast cancer cell lines were treated with serial dilutions of the compounds of the present invention ranging from 1 µM to 15.63 nM for 72 hours. Cell viability was measured by the WST-8 assay (Cyto XTM cell viability assay kit; LPS solution, Daejeon, Korea) according to the manufacturer's instructions.
For series [3], the system named is MCF10A normal breast cancer cell lines. As to the kind of experiment: Cell viability analysis, WST-8 assay, MCF10A. Conditions: compound 1 µM, 72 hours.
Method: as §1
The subject of series [4] is MCF10A normal breast cell lines. Nature of the series: Cell viability analysis, WST-8 assay, MCF10A.
Method: as §1
The nature of series [5]: Cell viability analysis, WST-8 assay, MCF10A. As to conditions: human, mcf10a cells.
Method: as §1
The nature of the next series: in vitro. As to conditions: human.
The mark [6] stands for this setting: read-out: IC50(nM) Cell viability (MCF7), MCF7, WST-8, 72 hours.
Setting [7] is: read-out: IC50(nM) Cell viability (MCF10A), MCF10A, WST-8, 72 hours.
Where [8] appears, read: Homo sapiens, MCF7, 72 h, read-out: IC50(nM) Cell viability (MCF7).
The mark [9] stands for this setting: Homo sapiens, MCF-10A, 72 h, read-out: IC50(nM) Cell viability (MCF10A).
Where [10] appears, read: Homo sapiens, MCF7, 72 h, read-out: Cell viability (%) WST-8, MCF7 (1 µM), compound 1 µM, 72 hours.
[11] abbreviates: Homo sapiens, MCF-10A, 72 h, read-out: IC50 Cell viability (MCF10A).
The mark [12] stands for this setting: Homo sapiens, MCF7, 72 h, read-out: IC50 Cell viability (MCF7).

A word on the IC50: it is the point on the concentration scale where inhibition reaches its midpoint.

Like-named read-outs stand apart in the source and are kept apart here.

In the case of `Clc1ccc(Nc2cccc(-c3cn[nH]c3)c2)cc1` [GKI-1], on MASTL, the half-inhibitory concentration (IC50) is 4900 nM.

Consider `COc1ccc(CNc2nc(Nc3cc(C4CC4)[nH]n3)c3ccccc3n2)cc1` [4ad, M^4-(5-cyclopropyl-1G-pyrazol-3-yl)-M^2-(4-methoxybenzyl)quinazoline-2,4-diamine], for which, in series [1], the “MASTL activity (%) HTRF (1 µM)” value stood at 65.7%. Moreover, the “pENSA (%) Immunofluor ecense (1 µM)” value in the series on pENSA is reported as 143%. Also, in series [2], the “Cell viability (%) WST-8, MCF7 (1 µM)” value came to 96.4%. Moreover, the “Cell viability (%) WST-8, MCF10A (1 µM)” value in series [3] was found to be 96.0%.

With `N#Cc1ccccc1S(=O)(=O)N1CC2CCC1CN2c1nc(Nc2cc(C3CC3)[nH]n2)c2ccccc2n1` (stereo not shown) [compound 24e, 2-((5-(4-((5-cyclopropyl-1G-pyrazol-3-yl)amino)quinazolin-2-yl)-2,5-diazabicyclo[2.2.2]octan-2-yl)sulfonyl)benzonitrile], the IC50 in series [1] worked out at 213 nM; on pENSA (unit µM, read-out: IC50 pENSA) it was 1.9 µM; in series [2] (setting [6]), 543 nM; in series [4] (setting [7]) it was 184 nM. For the same compound, in series [1], the “MASTL activity (%) HTRF (1 µM)” value came to 10.8%. Besides, in the series on pENSA, the “pENSA (%) Immunofluor ecense (1 µM)” value was determined as 4.1%. The “Cell viability (%) WST-8, MCF7 (1 µM)” value in series [2] worked out at 2.2%. Besides, the “Cell viability (%) WST-8, MCF10A (1 µM)” value in series [3] was determined as 2.8%.

As to `CC(C)S(=O)(=O)N1CC2CCC1CN2c1nc(Nc2cc(C3CC3)[nH]n2)c2ccccc2n1` (stereo not shown) [compound 24a, M (5-cyclopropyl-1G-pyrazol-3-yl)-2-(5-(isopropylsulfonyl)-2,5-diazabicyclo[2.2.2]octan-2-yl)quinazolin-4-amine], the IC50 in series [1] is 180 nM; at pENSA (read-out: IC50(nM) pENSA) it was 0.263 µM; in series [2] (setting [6]) it was 954 nM; in series [4] (setting [7]), 420 nM. Moreover, the “MASTL activity (%) HTRF (1 µM)” value in series [1] is reported as 29.9%. Further, the “pENSA (%) Immunofluor ecense (1 µM)” value with pENSA came out at 14%. Further, the “Cell viability (%) WST-8, MCF7 (1 µM)” value in series [2] is recorded as 4.8%. Besides, the “Cell viability (%) WST-8, MCF10A (1 µM)” value in series [3] is 15.7%.

On to `N#CCc1ccc(Nc2nc(Nc3cc(C4CC4)[nH]n3)c3ccccc3n2)cc1` [compound 3a, 2-(4-((4-((5-cyclopropyl-1G-pyrazol-3-yl)amino)quinazolin-2-yl)amino)phenyl)acetonitrile], for which the IC50 was determined as 178 nM in series [1], 0.1 µM in the series on pENSA (read-out: IC50(nM) pENSA), 207 nM in series [2] (setting [8]) and 29 nM in series [4] (setting [9]). Moreover, in series [1], the activity at 1 µM turned out to be 20.8%. The “pENSA (%) Immunofluor ecense (1 µM)” value in the series with pENSA is given as 5.1%. Besides, the viability at 1 µM in series [2] (Homo sapiens, MCF7, 72 h, read-out: Cell viability (%) WST-8, MCF7 (1 µM)) stood at 0.05%; in series [5], 1.6%.

`O=C(Nc1nc2ccccc2[nH]1)c1cccc(-n2cccc2)c1` [MKI-1]: the IC50 on MASTL is 9900 nM.

Regarding `O=S(=O)(c1cccs1)N1CC2CCC1CN2c1nc(Nc2cc(C3CC3)[nH]n2)c2ccccc2n1` (stereo not shown) [compound 24d, M-(5-cyclopropyl-1G-pyrazol-3-yl)-2-(5-(thiophen-2-ylsulfonyl)-2,5-diazabicyclo[2.2.2]octan-2-yl)quinazolin-4-amine], the IC50 in series [1] came out at 597 nM; on pENSA (unit µM, read-out: IC50 pENSA) it was 1.9 µM; in series [2] (setting [6]), 626 nM; in series [4] (setting [7]), 210 nM. Further, the “MASTL activity (%) HTRF (1 µM)” value in series [1] is listed as 32.9%. Moreover, in the series with pENSA, the “pENSA (%) Immunofluor ecense (1 µM)” value is 2.6%. Also, in series [2], the “Cell viability (%) WST-8, MCF7 (1 µM)” value is on record as 6.4%. Moreover, the “Cell viability (%) WST-8, MCF10A (1 µM)” value in series [3] is 4.9%.

For `NC(=O)Cc1ccc(Nc2nc(Nc3cc(C4CC4)[nH]n3)c3ccccc3n2)cc1` [compound 4u, 2-(4-((4-((5-cyclopropyl-1G-pyrazol-3-yl)amino)quinazolin-2-yl)amino)phenyl)acetamide], the IC50 in series [1] amounted to 392 nM; in series [4] (setting [9]) it was 718 nM. For the same compound, in series [1], the activity at 1 µM is 30.5%. For the same compound, in the series with pENSA, the “pENSA (%) Immunofluor ecense (1 µM)” value is given as 41.2%. Moreover, the viability at 1 µM in the series “in vitro” (mcf10a cells) was determined as 25.5%; in series [2] (setting [10]), 64.8%.

Consider `O=S(=O)(C1CCCCC1)N1CC2CCC1CN2c1nc(Nc2cc(C3CC3)[nH]n2)c2ccccc2n1` (stereo not shown) [compound 24b, 2-(5-(cyclohexylsulfonyl)-2,5-diazabicyclo[2.2.2]octan-2-yl)-M-(5-cyclopropyl-1G-pyrazol-3-yl)quinazolin-4-amine], for which the figures for the IC50 (in series [1]; at pENSA (read-out: IC50(nM) pENSA); in series [4] (setting [7])) were 198 nM, 0.77 µM and 684 nM, respectively. Moreover, the “MASTL activity (%) HTRF (1 µM)” value in series [1] is recorded as 24.8%. The “pENSA (%) Immunofluor ecense (1 µM)” value in the series with pENSA is given as 36%. For the same compound, in series [2], the “Cell viability (%) WST-8, MCF7 (1 µM)” value worked out at 90.7%. Besides, the “Cell viability (%) WST-8, MCF10A (1 µM)” value in series [3] is 26.5%.

On to `c1ccc2c(Nc3cc(C4CC4)[nH]n3)nc(Nc3ccc4cc[nH]c4c3)nc2c1` [compound 4dc, N^4-(5-cyclopropyl-1H-pyrazol-3-yl)-N^2-(1H-indol-6-yl)quinazoline-2,4-diamine], for which the IC50 in series [1] is 480 nM; with pENSA (unit µM, read-out: IC50 pENSA) it was 2.5 µM; in series [2] (setting [8]), 467 nM; in series [4] (setting [11]), 1300 nM. In addition, the activity at 1 µM in series [1] was determined as 22.1%. Moreover, the viability at 1 µM in “in vitro” amounted to 54%; in series [2] (setting [10]), 6.4%.

Take `O=S(=O)(c1ccccc1)N1CC2CC1CN2c1nc(Nc2cc(C3CC3)[nH]n2)c2ccccc2n1` (stereo not shown) [compound 15m, M-(5-cyclopropyl-1G-pyrazol-3-yl)-2-(5-(phenylsulfonyl)-2,5-diazabicyclo[2.2.1]heptan-2-yl)quinazolin-4-amine]: the IC50 in series [1] came to 490 nM; in series [2] (setting [12]) it was 4200 nM; in series [4] (setting [11]), 1900 nM. Also, the activity at 1 µM in series [1] is 28.7%. In addition, the “pENSA (%) Immunofluor ecense (1 µM)” value with pENSA is 82.6%. Moreover, the viability at 1.1 µM was 82.2% in the series “in vitro” (mcf10a cells) and 111% in series [2] (Homo sapiens, MCF7, 72 h, read-out: Cell viability (%) WST-8, MCF7, footnote d: concentration 1.1 µM, 72 hours).

Regarding `O=C(Nc1ccc(F)cc1)N1CCN(c2nc(Nc3cc(C4CC4)[nH]n3)c3ccccc3n2)CC1` [compound 12d, 4-(4-((5-cyclopropyl-1G-pyrazol-3-yl)amino)quinazolin-2-yl)-M-(4-fluorophenyl)piperazine-1-carboxamide], the concentration for half-maximal inhibition (IC50) in series [1] stood at 832 nM; in the series on pENSA (read-out: IC50(nM) pENSA), 0.571 µM; in series [2] (setting [12]) it was 1500 nM; in series [4] (setting [11]), 1500 nM. The activity at 10 µM in series [1] (footnote b: concentration 10 µM, read-out: MASTL activity (%) HTRF) was 14.1%. Moreover, the “pENSA (%) Immunofluor ecense (1 µM)” value with pENSA was 46.3%. Moreover, the viability at 1.25 µM in the series “in vitro” (mcf10a cells) was determined as 63.7%; in series [2] (Homo sapiens, MCF7, 72 h, read-out: Cell viability (%) WST-8, MCF7, footnote a: concentration 1.25 µM, 72 hours), 55.8%.

Source of the values: EP4786466A1, “QUINAZOLINE DERIVATIVE, SALT THEREOF, AND PHARMACEUTICAL COMPOSITION COMPRISING SAME AS ACTIVE INGREDIENT” (Korea Research Institute of Chemical Technology, priority 2023, dated 2025).
